Where a SMILES comes first, the peptide text is derived from it.
Target: T1, KcsA-Kv1.3 T+F chimera (Streptomyces lividans, UniProt P0A334, A54D/A57S/G53D/G56T/I60S/L59F/L81M/Q58G/R52A/R64D/T61S/Y62I/Y82H)
T1 construct: made in house; host or cells: E. coli C41(DE3) (pET45b)
T1 sequence (P0A334 1-160 R52A/G53D/A54D/G56T/A57S/Q58G/L59F/I60S/T61S/Y62I/R64D/L81M/Y82H): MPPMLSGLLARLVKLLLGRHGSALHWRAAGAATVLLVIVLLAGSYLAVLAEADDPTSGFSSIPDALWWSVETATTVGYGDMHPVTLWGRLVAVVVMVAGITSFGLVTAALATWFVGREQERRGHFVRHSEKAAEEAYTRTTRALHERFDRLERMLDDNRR
Assay: Phage ELISA-binding assay, KcsA-Kv1.3 T+F
Design: species or system human Kv1.3 turret and filter in Streptomyces lividans KcsA
Conditions: toxin displayed on M13 phage, Fig. 6D
Experimental: Phage display test solutions were prepared according to routine phage display protocols ([62]). Phosphorylated and annealed oligonucleotides encoding the peptide construct were ligated into linearized pAS62 phagemid vector (https://patents.google.com/patent/WO2022144560A1/en) at a vector/insert ratio of 1:3. The final phagemid construct harbored a signal sequence followed by the peptide of interest, a linker sequence ([…]), and the C-terminal part of the P3 coat protein (amino acids: 216-424 of NP_510891.1). Chemically competent XL1-Blue E. coli cells (2022249, Agilent) were transformed with the ligation product and then streaked onto ampicillin (100 μg/ml) containing LB/Amp plates and incubated for 16 h at 37 °C. A few clones were sequenced, and a single colony with confirmed target sequence was inoculated into 3 ml 2 YT medium supplemented with 100 μg/ml ampicillin and incubated at 37 °C until the culture reached midlog phase. The culture was infected with M13KO7 helper phage (N0315S, New England Biolabs) (phage/cell ratio 10:1) and was incubated for 30 min at 37 °C. The 3 ml culture was transferred into 200 ml 2YT medium, supplemented with 100 μg/ml ampicillin and 25 μg/ml kanamycin, and incubated overnight at 37 °C. The overnight cell culture (200 ml) was pelleted by centrifugation at 8000g for 10 min in 400 ml centrifuge tubes at 4 °C. […] The particle concentrations of phage solutions were determined using a NanoDrop One C (Thermo Fisher Scientific) spectrophotometer. The phage particle concentration was assessed according to the formula: (A268–A320) × 5 × 10^12 particles/ml ([62]). […]
Phage stock solutions were diluted to working concentration with phage resuspension buffer supplemented with 2 mM DDM. […] Following blocking, the wells were washed 4× with washing buffer (300 μl TBS-Tween, 0.1% v/v) using a Wellwash Versa microplate washer (Thermo Fisher Scientific); then 50 μl phage solution (in TBS-BSA-Tween, 0.1% v/v, 2 mM DDM) at determined phage concentration was added to the wells and incubated for 1 h at room temperature on a horizontal shaker. […]

Question: For `CC[C@H](C)[C@@H]1NC(=O)CNC(=O)[C@H](Cc2ccccc2)NC(=O)[C@H](CCC(N)=O)NC(=O)[C@H](C)NC(=O)[C@H](CCCCN)NC(=O)[C@@H]2CSSC[C@@H](C(=O)N[C@@H](Cc3ccc(O)cc3)C(=O)N3CCC[C@H]3C(=O)N[C@@H](Cc3c[nH]cn3)C(=O)O)NC(=O)[C@H](CCCCN)NC(=O)[C@@H]3CSSC[C@H](NC(=O)[C@H](CCC(N)=O)NC(=O)[C@H](CCCCN)NC(=O)[C@@H]4CCCN4C(=O)[C@H](CO)NC(=O)[C@H]([C@@H](C)O)NC(=O)[C@@H](NC(=O)[C@H](CCCCN)NC(=O)[C@@H](NC(=O)[C@H](CC(=O)O)NC(=O)[C@@H](NC(=O)[C@@H](NC(=O)[C@@H](N)[C@@H](C)O)C(C)C)[C@@H](C)CC)C(C)C)CSSC[C@H](NC(=O)[C@H](CCCCN)NC(=O)[C@H](C)NC(=O)CNC(=O)[C@H](C)NC(=O)[C@H](CCCNC(=N)N)NC1=O)C(=O)N[C@@H](CCSC)C(=O)N[C@@H](CC(N)=O)C(=O)NCC(=O)N[C@@H](CCCCN)C(=O)N3)C(=O)N[C@@H](CC(C)C)C(=O)N1CCC[C@H]1C(=O)N1CCC[C@H]1C(=O)N2` [HgTx1, Hongotoxin-1] (HELM PEPTIDE1{T.V.I.D.V.K.C.T.S.P.K.Q.C.L.P.P.C.K.A.Q.F.G.I.R.A.G.A.K.C.M.N.G.K.C.K.C.Y.P.H}$PEPTIDE1,PEPTIDE1,7:R3-29:R3|PEPTIDE1,PEPTIDE1,13:R3-34:R3|PEPTIDE1,PEPTIDE1,17:R3-36:R3$$$V2.0; N-terminus and C-terminus assumed), which “rank order of phage binding to KcsA-Kv1.3 T+F” value (“rank order of phage binding” below) is on record?
Answer: The value was “Vm24 > HgTx1 > KTX1”.

Question: With `CC[C@H](C)[C@H](NC(=O)[C@H](CCC(=O)O)NC(=O)[C@@H](NC(=O)CN)C(C)C)C(=O)N[C@@H](CC(N)=O)C(=O)N[C@H](C(=O)N[C@@H](CCCCN)C(=O)N[C@H]1CSSC[C@@H]2NC(=O)[C@H](CCCCN)NC(=O)CNC(=O)[C@H](Cc3ccccc3)NC(=O)[C@H](CCCNC(=N)N)NC(=O)[C@H](CCSC)NC(=O)CNC(=O)[C@H](C)NC(=O)[C@H](CC(=O)O)NC(=O)[C@H](CCCCN)NC(=O)[C@@H]3CSSC[C@@H](C(=O)N[C@H](C(=O)N4CCC[C@H]4C(=O)N[C@@H](CCCCN)C(=O)O)[C@@H](C)O)NC(=O)[C@H](Cc4c[nH]cn4)NC(=O)[C@H](CSSC[C@H](NC(=O)[C@H](CCC(N)=O)NC(=O)[C@@H]4CCCN4C(=O)[C@H](CO)NC(=O)CNC(=O)[C@H](CO)NC1=O)C(=O)N[C@@H](CC(C)C)C(=O)N[C@@H](CCCCN)C(=O)N1CCC[C@H]1C(=O)N3)NC(=O)[C@H](CCCCN)NC(=O)[C@H](CCCNC(=N)N)NC(=O)[C@H](CC(N)=O)NC(=O)[C@H](CCSC)NC2=O)C(C)C` [KTX1, Kaliotoxin-1] as the compound, how does the “rank order of phage binding” value read?
Answer: Its value is “Vm24 > HgTx1 > KTX1”.

Question: For `CC[C@H](C)[C@H](NC(=O)[C@H](C)NC(=O)[C@H](C)NC(=O)[C@H](C)N)C(=O)N[C@@H](CO)C(=O)N[C@H]1CSSC[C@@H]2NC(=O)[C@H](CCCCN)NC(=O)CNC(=O)[C@H](CC(N)=O)NC(=O)[C@H](CCCCN)NC(=O)[C@@H]3CSSC[C@@H](C(N)=O)NC(=O)[C@H](Cc4ccc(O)cc4)NC(=O)[C@H](Cc4ccc(O)cc4)NC(=O)[C@@H]4CSSC[C@H](NC(=O)[C@H](CCCCN)NC(=O)[C@@H]5CCCN5C(=O)[C@@H]5CCCN5C(=O)[C@H](CSSC[C@H](NC(=O)[C@H](CCCCN)NC(=O)[C@H](CCCNC(=N)N)NC(=O)[C@H](CC(N)=O)NC(=O)[C@H](CCSC)NC2=O)C(=O)N[C@@H](CCCCN)C(=O)N4)NC(=O)[C@H](CCC(=O)O)NC(=O)[C@@H]2CCCN2C(=O)[C@H](CO)NC(=O)CNC(=O)[C@H](C(C)C)NC1=O)C(=O)N[C@@H](CCCNC(=N)N)C(=O)N[C@@H](C)C(=O)N[C@@H](CCC(N)=O)C(=O)NCC(=O)N3` [Vm24, Vm24 toxin], which “rank order of phage binding” value is on record?
Answer: Its value is “Vm24 > HgTx1 > KTX1”.
